Series [1] concerns Normal human keratinocytes. The series is described as follows: Measurement of IL-8 release. The series is classed as cell-based. The following applies: peptides 3.2 μM, 6 h, ELISA; FIG. 4a. The method, then: Measurement of IL-8 release. Normal human keratinocytes (Cascade Biologics) were grown in EpiLife medium (Cascade Biologics) supplemented with 0.06 mM Ca2, 1% EpiLife defined growth supplement, and 1% penicillin/streptomycin (Invitrogen Life Technologies). Cells were grown at 37° C. in a humidified atmosphere of 5% CO2 and 95% air. Human keratinocytes were cultured to confluence and treated with the cathelicidin peptides (3.2 μM) for 6 h. Supernatants were collected and placed in a sterile 96-well plate for ELISA. IL-8 production was determined by ELISA (R&D systems) according to the manufacturer's instructions.

In series [2] the test system is mouse skin. The series is described as follows: Mouse skin inflammation model, subcutaneous injection of cathelicidin peptides. The series is classed as in vivo, Balb/C and C57/B16 mice. The following applies: for skin inflammation (erythema, vascular dilatation) / histology of injected skin: 320 μM in 40 μl; for skin inflammation (erythema, vascular dilatation): injected twice a day for 2 d, assessed after 48 hr; for histology of injected skin: biopsy after 48 hr. The method, then: Mouse skin inflammation models. All animal procedures were approved by the Veterans Affairs (VA) San Diego Healthcare System subcommittee on animal studies. Balb/C and C57/B16 mice shaved 24 h prior to treatments and injected subcutaneously on the back with 40 μl of peptide (320 μM) twice a day. Forty-eight h after initial injection (total 4 injections), skin inflammation was assessed by the severity of erythema and edema, then biopsied for histology.
Mouse skin inflammation models. Balb/C or […] mice shaved 24 h prior to treatments were injected subcutaneously on the back with 40 μl of peptide at different concentrations (320, 32, 3.2, 0.32 μM, and PBS as 0 μM) twice a day. Forty-eight h after initial injection (total 4 injection), skin inflammation was assessed by the severity of erythema and edema. Skin was then biopsied for hematoxlin eosin staining to examine the histopathological changes. Frozen sections were also prepared and processed for immunostaining that included rat monoclonal anti-mouse Ly-6G (BD Biosciences, San Jose, Calif.) or rat monoclonal anti-mouse CD31 (BD Biosciences). Goat anti-rat IgG conjugated to FITC (Abcam Inc., Cambridge, Mass.) was used as the secondary antibody. Nuclei were stained with DAPI and sections were mounted in ProLong Anti-Fade reagent (Molecular Probes). Images were obtained using an Olympus BX41 microscope (Scientific Instrument Company, Temecula, Calif.).

A further series addresses T1, mouse cathelicidin (UniProt P51437).
T1 sequence: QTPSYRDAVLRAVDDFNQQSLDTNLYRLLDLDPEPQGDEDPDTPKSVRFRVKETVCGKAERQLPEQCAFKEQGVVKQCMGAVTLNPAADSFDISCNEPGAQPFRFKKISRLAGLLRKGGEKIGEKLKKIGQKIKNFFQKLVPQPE

For series [3], the system named is protease activity in rosacea skin. The series is described as follows: Skin protease activity (BODIPY FL casein substrate) of rosacea skin extracts with protease inhibitors. It counts as biochemical, human. The conditions noted are these: tape-stripped rosacea facial skin extracts, FITC/BODIPY FL casein, 37° C. 24 h; 20 μg/ml aprotinin, 200 μM AEBSF; FIG. 3k. How it is done: Skin protease activity. To obtain skin surface protease, facial skin was tape-stripped 20 times then immersed in 1 ml 1 M acetic acid and incubated 4° C. overnight, extracts were lyophilized and the pellet dissolved in 40 μl of 1×PBS, pH 7.4. Protease activity was monitored with EnzCheck® Protease Assay Kit green fluorescence (Molecular Probes, Inc., Eugene, Oreg.) according to manufacturer's instructions. Briefly, 10 μl of the aqueous solution collected from the skin surface was mixed with 190 μl of BODIPY FL casein substrate in 10 mM Tris-HCl, pH 7.8, and incubated at 37° C. for 24 h. Protease activity was monitored as increased fluorescence with SpectraMax GEMINI EM (Molecular Devices Corporation, Sunnyvale, Calif.). In some experiments protease inhibitors were added including mixed protease inhibitors (Complete EDTA-free, 1 tablet/50 ml; Roche, Indianapolis, Ind.), 200 μg/ml bestatin, 20 μg/ml E-64, and 20 μg/ml aprotinin (Sigma-Aldrich, St. Louis, Mo.), 200 μM 4-(2-aminoethyl)-benzenesulfonylfluoride (AEBSF), 200 μM human neutrophil elastase inhibitor (methoxysuccinyl-Ala-Ala-Pro-Ala-chloromethyl ketone), 200 μM human leukocyte elastase inhibitor (methoxysuccinyl-Ala-Ala-Pro-Val-chloromethylketone, Calbiochem, San Diego, Calif.).

Series [4] deals with T2, kallikrein stratum corneum tryptic enzyme (SCTE) (Homo sapiens, UniProt Q9Y337).
T2 sequence (Q9Y337 23-293): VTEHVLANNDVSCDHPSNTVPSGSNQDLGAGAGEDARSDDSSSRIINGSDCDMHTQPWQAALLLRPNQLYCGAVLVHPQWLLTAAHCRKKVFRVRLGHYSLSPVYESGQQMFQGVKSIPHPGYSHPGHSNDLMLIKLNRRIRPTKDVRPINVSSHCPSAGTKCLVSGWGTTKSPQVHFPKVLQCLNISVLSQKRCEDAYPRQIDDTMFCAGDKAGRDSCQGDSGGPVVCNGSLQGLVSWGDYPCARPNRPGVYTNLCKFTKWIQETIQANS
The series is described as follows: Inhibition of SCTE in vitro. The series is classed as biochemical. The source says: In one aspect of the disclosure, a method of treatment of inflammatory diseases and disorders, rosacea and or acnes comprises inhibiting cathelicidin expression or activity. Examples of compositions and methods for inhibiting the expression of cathelicidins include antisense, ribozyme and gene therapy techniques. For example, rosacea can be inhibited or treated using antisense or ribozyme therapies that reduce the expression of cathelicidin. In one aspect, a vitamin D inhibitor, or vitamin D receptor antagonist can be used to reduce expression of a cathelicidin. Examples of compositions and methods for inhibiting cathelicidin activity include antibodies and small molecule agents. In one aspect, the treatment is at the site of inflammation through topical inhibition of Vitamin D activity, inhibiting of a Vitamin D receptor activity, or an inhibitor of a protease that cleaves full length cathelicidin into its active fragments is provided. For example, a method of the disclosure comprises inhibiting the kallikrein stratum corneum tryptic enzyme (SCTE), an enzyme that cleaves the cathelicidin precursor protein.

Series [5] concerns mouse skin. The series is described as follows: Subcutaneous injection of SCTE in mice, skin inflammation and cathelicidin processing. It counts as in vivo. The method, then:
Skin from Spink5^−/− mice had altered expression of cathelicidin peptides similar to that seen in rosacea (FIG. 4i). The main peak was GLL-34 (m/z 3,877; FIG. 4i, arrowhead), a mouse cathelicidin peptide similar in activity to human LL-37. Like LL-37, GLL-34 was not detected in wild-type mouse littermates with normal serine protease activity. […] To determine whether an increase in SCTE results in greater inflammation, SCTE was injected subcutaneously in a manner similar to that used for the cathelicidin peptides themselves. The amount of SCTE in human skin is as high as 2-13 ng per mg of dry weight of skin. From the data of the protease assay, the amount of serine protease activity in lesional skin of individuals with rosacea was estimated to be as high as 500 ng of tryptic kallikrein per mg of dry weight of skin. Therefore, […] of SCTE was injected twice a day for 2 d to mimic local concentrations seen in rosacea. […] Therefore, the increase in SCTE observed in rosacea would account for the pathological changes observed this disease.

Consider eight molecules from US20090318534A1, “METHODS AND COMPOSITIONS FOR THE TREATMENT OF SKIN DISEASES AND DISORDERS” (THE REGENTS OF THE UNIVERSITY OF CALIFORNIA, priority 2006, published 2009).

Entries after “also recorded” stand apart in the source; their conditions may differ.

For the molecule “DI-27: synthetic cathelicidin peptide DISCDKDNKRFALLGDFFRKSKEKIGK (SEQ ID NO:7) (Partial Peptide Sequence from TOF-MS)”, the “secretion of IL-8 from cultured human keratinocytes” value (from here on “secretion”) in series [1] is listed as “did not”.
Consider “KR-20: synthetic cathelicidin peptide KRIVQRIKDFLRNLVPRTES (SEQ ID NO:15)”, for which the “secretion” value in series [1] was “did not induce cytokine release”. Moreover, in the series with mouse skin [2], the “skin inflammation (erythema, vascular dilatation)” value is recorded as “did not induce inflammation”.
Turning to “LL-37: synthetic cathelicidin peptide LLGDFFRKSKEKIGKEFKRIVQRIKDFLRNLVPRTES (SEQ ID NO:14) (Partial Peptide Sequence from TOF-MS)”, the “secretion” value in series [1] is reported as “induced secretion of IL-8”. In addition, in the series with mouse skin [2], the “skin inflammation (erythema, vascular dilatation)” value was “induced erythema and vascular dilatation”. For the same molecule, in the series with mouse skin [2] (twice a day for 2 d), the “histology of injected skin” value was “neutrophilic infiltrate, thrombosis and hemorrhage”. Also, the “lowest concentration with dose-dependent inflammatory reaction” value in the series with mouse skin [2] (320-0.32 μM, 40 μl, twice a day for 2 d, FIG. 7d, Balb/C and C57/B16) was 3.2 µM.
On to stratum corneum tryptic enzyme (SCTE), for which, in the series with mouse cathelicidin, the “cathelicidin processing in mouse skin after subcutaneous SCTE injection (SELDI-TOF-MS)” value was “SCTE-treated skin showed inflammation and processed cathelicidin peptide (m/z 4,244, sequence FKKISRLAGLLRKGGEKIGEKLKKIGQKIKNFFQKLV (SEQ ID NO:3))”.
Take aprotinin: in series [3], the “protease activity in rosacea skin” value is reported as “completely suppressed protease activity; also recorded: effective in eliminating activity”. In addition, the “inhibition of SCTE in vitro” value in series [4] is reported as “can inhibit this enzyme in vitro”.
As for “FA-29: synthetic cathelicidin peptide FALLGDFFRKSKEKIGKEFKRIVQRIKDF (SEQ ID NO:10) (Partial Peptide Sequence from TOF-MS)”, the “secretion” value in series [1] is recorded as “induced secretion of IL-8”. In addition, in the series with mouse skin [2], the “skin inflammation (erythema, vascular dilatation)” value was “induced erythema and vascular dilatation”. For the same molecule, the “histology of injected skin” value in the series with mouse skin [2] (twice a day for 2 d) is “neutrophilic infiltrate, thrombosis and hemorrhage”.
On to “SCTE: kallikrein SCTE (stratum corneum tryptic enzyme, KLK5), serine protease that cleaves cathelicidin precursor”, for which the “cell infiltration after SCTE injection in Camp−/− mice compared with wild type mice” value in the series on mouse skin [5] (Camp−/− versus wild type, infiltrated cells per HPF, n=4, P<0.05) was “considerably less cell infiltration; also recorded: significantly less cell infiltration”. In addition, in the series with mouse skin [5] (active SCTE injected subcutaneously twice a day for 2 d, versus control (boiled SCTE)), the “skin inflammation and cathelicidin processing after SCTE injection” value was “induced erythema and inflammatory cell infiltration accompanied by processing of cathelicidin peptide; also recorded: showed inflammation and processed cathelicidin peptide”.
`NCCc1ccc(S(=O)(=O)F)cc1` [AEBSF, 4-(2-aminoethyl)-benzenesulfonylfluoride]: in series [3], the “protease activity in rosacea skin” value is “completely suppressed protease activity; also recorded: effective in eliminating activity”. For the same molecule, in series [4], the “inhibition of SCTE in vitro” value is recorded as “can inhibit this enzyme in vitro”.
